According to patent CN102503942A, “一种氟喹诺酮衍生物及其制备和药物应用” (Individual, priority 2011, dated 2012):
In brackets after ≈: the same amount, converted by molar mass.

tested on: Staphylococcus aureus, ATCC 25923 (金黄色葡萄球菌,ATCC 25923); experiment: MIC by broth microdilution (微量肉汤稀释法); format: cell-based; conditions: ATCC25923, 16 h, MH broth, pH 7.2~7.4, 35℃, 16~20 h

Row | SMILES | MIC [µg/mL]
1 | CC1COc2c(N3CCN(C)CC3)c(F)cc3c(=O)c(C(=O)O)cn1c23 (centres unmarked) [氧氟沙星, reference compound] | 0.3 (≈ 0.83 µM)
2 | COc1c(N2CCN3CCCCC3C2)c(F)cc2c(=O)c(C(=O)O)cn(C3CC3)c12 (centres unmarked) [例子1, 7-(八氢-2H-吡啶并[1,2-a]吡嗪基)-1-环丙基-6-氟-1,4-二氢-8-甲氧基-4-氧代-3-喹啉羧酸] | < 0.3
3 | COc1c(N2CCN3CCNCC3C2)c(F)cc2c(=O)c(C(=O)O)cn(C3CC3)c12 (centres unmarked) [例子3, 7-(八氢-2H-吡嗪并[1,2-a]吡嗪基)-1-环丙基-6-氟-1,4-二氢-8-甲氧基-4-氧代-3-喹啉羧酸] | < 0.3

Results, then the compound that gave them:

Row | MIC [µg/mL] | SMILES
4 | < 0.1 | COc1c(N2CCN3CCNC3C2)c(F)cc2c(=O)c(C(=O)O)cn(C3CC3)c12 (centres unmarked) [例子4, 7-(六氢咪唑并[1,2-a]吡嗪基)-1-环丙基-6-氟-1,4-二氢-8-甲氧基-4-氧代-3-喹啉羧酸]
5 | < 0.1 | COc1c(N2CCN3CCCC3C2)c(F)cc2c(=O)c(C(=O)O)cn(C3CC3)c12 (centres unmarked) [例子2, 7-(六氢吡咯并[1,2-a]吡嗪基)-1-环丙基-6-氟-1,4-二氢-8-甲氧基-4-氧代-3-喹啉羧酸]
